# Test results as given in patent US8686150B2 (Sanofi, priority 2011, dated 2014).
# Biological target: T1, human full-length recombinant PKC βII (Homo sapiens, UniProt P05771)
# T1 construct: Active human full-length recombinant PKC βII; purchased Invitrogen GmbH, Darmstadt, Germany
# Assay: Determination of PKC βII inhibition (Caliper mobility-shift kinase assay, Fluorescein-RFARKGSLRQKNV peptide substrate)
# Type: biochemical
# Settings: example compounds at a final concentration of 1.14 μM (±0.15 μM)
# Procedure: Determination of PKC βII Inhibition
# PKC βII Inhibition was Determined According to the Following Protocol:
# Active human full-length recombinant PKC βII and the peptide substrate, Fluorescein-RFARKGSLRQKNV, were purchased from Invitrogen GmbH, Darmstadt, Germany. Adenosine-5′-triphosphate (ATP), bovine serum albumine (BSA), dimethylsulphoxide (DMSO), 4-(2-hydroxyethyl)piperazine-1-ethanesulfonic acid (Hepes), Triton X-100, 1,2-Dioleoyl-sn-glycerol (DAG), L-G-Phosphatidyl-L-serine (PS), calcium chloride (CaCl2), and Pluronic F-68 were purchased from Sigma-Aldrich, Munich, Germany. Magnesium chloride, 1 M sodium hydroxide solution, 1M hydrochloric acid solution and EDTA were obtained from Merck Biosciences, Darmstadt, Germany.
# Test compounds were diluted to three times the test concentration in buffer 1 (30 mM Hepes-NaOH, pH 7.4, 0.01% Pluronic F-68 and 3% (v/v) DMSO). The PKC enzyme was diluted to a concentration of 30 ng/ml in buffer 2 (30 mM Hepes-NaOH, pH 7.4, 15 mM MgCl2, 150 μM CaCl2, 150 μg/ml PS, 60 μg/ml DAG, and 0.045% (w/v) Triton X-100). The peptide substrate and ATP were diluted to concentrations of 3 μM and 120 μM, respectively, in buffer 2. Two μl of the compound solution were mixed with 2 μl of the diluted enzyme in a 384-well small volume microtiter plate (Greiner, Bio-One, Frickenhausen, Germany), and the kinase reaction was initiated by addition of 2 μl of the solution containing peptide substrate and ATP. After 60 min incubation at 32° C., the reaction was stopped by addition of 20 μl of a solution containing 130 mM Hepes-NaOH, pH 7.4. 0.0195% (v/v) Brij-35, 6.5 mM EDTA. 0.13% chip coating reagent 3 (Caliper Lifescience Inc, Hopkinton, Mass.) and 6.5% (v/v) DMSO. Phosphorylation of the substrate peptide was then detected on a Caliper 3000 instrument essentially as described by Pommereau et al (J. Biomol. Screening 2004, 9(5), 409-416). Separation conditions were as follows: Pressure −0.8 psi, upstream voltage −3000 V, downstream voltage −800 V. Positive controls (buffer 1 instead of compound) and negative controls (buffer 1 instead of compound and buffer 2 instead of kinase solution) were run in parallel on each plate. Fractional turnover (R) was determined as the height of the peak of the phosphorylated peptide product divided by the sum of the unphosphorylated substrate and phosphorylated product peak heights. Percent-inhibition values for the test compounds were determined using the formula % Inhibition=100*(1−(Rcompound−Rnegative control)/(Rpositive control−Rnegative control).
# In the following table % inhibition values observed with example compounds at a final concentration of 1.14 μM (±0.15 μM) are listed: […]
# T1 sequence (P05771 1-673 isoform P05771-2): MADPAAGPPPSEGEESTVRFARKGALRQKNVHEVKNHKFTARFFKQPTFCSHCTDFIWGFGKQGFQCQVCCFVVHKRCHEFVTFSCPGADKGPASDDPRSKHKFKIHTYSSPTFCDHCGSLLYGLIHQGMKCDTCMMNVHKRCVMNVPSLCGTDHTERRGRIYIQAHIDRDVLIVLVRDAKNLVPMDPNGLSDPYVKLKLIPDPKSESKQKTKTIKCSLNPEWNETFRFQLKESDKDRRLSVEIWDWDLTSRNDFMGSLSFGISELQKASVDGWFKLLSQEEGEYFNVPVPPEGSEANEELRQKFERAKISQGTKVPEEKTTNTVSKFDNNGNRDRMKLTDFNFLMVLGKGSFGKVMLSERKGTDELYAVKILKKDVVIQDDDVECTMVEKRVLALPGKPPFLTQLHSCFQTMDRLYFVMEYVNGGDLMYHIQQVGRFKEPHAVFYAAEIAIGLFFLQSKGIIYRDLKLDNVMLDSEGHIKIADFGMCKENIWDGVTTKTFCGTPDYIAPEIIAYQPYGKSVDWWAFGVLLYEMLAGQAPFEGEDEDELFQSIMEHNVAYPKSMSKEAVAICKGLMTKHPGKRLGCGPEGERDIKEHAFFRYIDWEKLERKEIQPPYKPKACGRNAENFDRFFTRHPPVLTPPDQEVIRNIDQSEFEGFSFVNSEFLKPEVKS
row,SMILES,inhibition at 1.14 µM [%]
1,CCCc1n[nH]c2nc(-c3ccc(O)cc3)cc(C(=O)N3CCNCC3)c12 [Example 4],86
2,"O=C(c1cc(-c2ccc(O)cc2)nc2[nH]nc(C(F)(F)F)c12)N1CCNCC1 [Example 5, [6-(4-Hydroxy-phenyl)-3-trifluoromethyl-1H-pyrazolo[3,4-b]pyridin-4-yl]-piperazin-1-yl-methanone]",74
3,"Cc1n[nH]c2nc(-c3ccc(O)cc3Cl)cc(C(=O)N3CCNCC3)c12 [Example 6, [6-(2-Chloro-4-hydroxy-phenyl)-3-methyl-1H-pyrazolo[3,4-b]pyridin-4-yl]-piperazin-1-yl-methanone]",97
4,"Cc1n[nH]c2nc(-c3ccc(O)c(F)c3)cc(C(=O)N3CCNCC3)c12 [Example 7, [6-(3-Fluoro-4-hydroxy-phenyl)-3-methyl-1H-pyrazolo[3,4-b]pyridin-4-yl]-piperazin-1-yl-methanone]",91
5,"Cc1cc(-c2cc(C(=O)N3CCNCC3)c3c(C)n[nH]c3n2)ccc1O [Example 8, [6-(4-Hydroxy-3-methyl-phenyl)-3-methyl-1H-pyrazolo[3,4-b]pyridin-4-yl]-piperazin-1-yl-methanone]",32
6,"Cc1n[nH]c2nc(-c3ccc(O)c(Cl)c3)cc(C(=O)N3CCNCC3)c12 [Example 9, [6-(3-Chloro-4-hydroxy-phenyl)-3-methyl-1H-pyrazolo[3,4-b]pyridin-4-yl]-piperazin-1-yl-methanone]",41
7,"COc1cc(-c2cc(C(=O)N3CCNCC3)c3c(C)n[nH]c3n2)ccc1O [Example 10, [6-(4-Hydroxy-3-methoxy-phenyl)-3-methyl-1H-pyrazolo[3,4-b]pyridin-4-yl]-piperazin-1-yl-methanone]",29
8,"Cc1n[nH]c2nc(-c3ccc(O)cc3F)cc(C(=O)N3CCNCC3)c12 [Example 11, [6-(2-Fluoro-4-hydroxy-phenyl)-3-methyl-1H-pyrazolo[3,4-b]pyridin-4-yl]-piperazin-1-yl-methanone]",101
9,"Cc1n[nH]c2nc(-c3cc(F)c(O)c(F)c3)cc(C(=O)N3CCNCC3)c12 [Example 12, [6-(3,5-Difluoro-4-hydroxy-phenyl)-3-methyl-1H-pyrazolo[3,4-b]pyridin-4-yl]-piperazin-1-yl-methanone]",61
10,"Cc1cc(O)ccc1-c1cc(C(=O)N2CCNCC2)c2c(C)n[nH]c2n1 [Example 13, [6-(4-Hydroxy-2-methyl-phenyl)-3-methyl-1H-pyrazolo[3,4-b]pyridin-4-yl]-piperazin-1-yl-methanone]",96
11,"COc1cc(O)ccc1-c1cc(C(=O)N2CCNCC2)c2c(C)n[nH]c2n1 [Example 14, [6-(4-Hydroxy-2-methoxy-phenyl)-3-methyl-1H-pyrazolo[3,4-b]pyridin-4-yl]-piperazin-1-yl-methanone]",94
12,"CCOc1cc(-c2cc(C(=O)N3CCNCC3)c3c(C)n[nH]c3n2)ccc1O [Example 15, [6-(3-Ethoxy-4-hydroxy-phenyl)-3-methyl-1H-pyrazolo[3,4-b]pyridin-4-yl]-piperazin-1-yl-methanone]",35
13,"Cc1n[nH]c2nc(-c3cc(F)c(O)c(F)c3)cc(C(=O)N3CCNC[C@@H]3C)c12 [Example 16, [6-(3,5-Difluoro-4-hydroxy-phenyl)-3-methyl-1H-pyrazolo[3,4-b]pyridin-4-yl]-((S)-2-methyl-piperazin-1-yl)-methanone]",69
14,"Cc1cc(O)ccc1-c1cc(C(=O)N2CCNC[C@@H]2C)c2c(C)n[nH]c2n1 [Example 17, [6-(4-Hydroxy-2-methyl-phenyl)-3-methyl-1H-pyrazolo[3,4-b]pyridin-4-yl]-((S)-2-methyl-piperazin-1-yl)-methanone]",95
15,"COc1cc(O)ccc1-c1cc(C(=O)N2CCNC[C@@H]2C)c2c(C)n[nH]c2n1 [Example 18, [6-(4-Hydroxy-2-methoxy-phenyl)-3-methyl-1H-pyrazolo[3,4-b]pyridin-4-yl]-((S)-2-methyl-piperazin-1-yl)-methanone]",94
16,"Cc1n[nH]c2nc(-c3ccc(O)cc3)cc(C(=O)N3CC4CC3CN4)c12 (centres unmarked) [Example 19, 2,5-Diaza-bicyclo[2.2.1]hept-2-yl-[6-(4-hydroxy-phenyl)-3-methyl-1H-pyrazolo[3,4-b]pyridin-4-yl]-methanone]",92
17,"CC[C@H]1CNCCN1C(=O)c1cc(-c2ccc(O)cc2)nc2[nH]nc(C)c12 [Example 20, ((S)-2-Ethyl-piperazin-1-yl)-[6-(4-hydroxy-phenyl)-3-methyl-1H-pyrazolo[3,4-b]pyridin-4-yl]-methanone]",110
18,"COC[C@H]1CNCCN1C(=O)c1cc(-c2ccc(O)cc2)nc2[nH]nc(C)c12 [Example 21, [6-(4-Hydroxy-phenyl)-3-methyl-1H-pyrazolo[3,4-b]pyridin-4-yl]-((R)-2-methoxymethyl-piperazin-1-yl)-methanone]",121
19,"Cc1n[nH]c2nc(-c3ccc(O)cc3)cc(C(=O)N(CCc3ccccc3)[C@@H]3CCCNC3)c12 [Example 22, 6-(4-Hydroxy-phenyl)-3-methyl-1H-pyrazolo[3,4-b]pyridine-4-carboxylic acid phenethyl-(R)-piperidin-3-yl-amide]",63
20,"Cc1n[nH]c2nc(-c3ccc(O)cc3)cc(C(=O)N3CCNC[C@H]3C)c12 [Example 23, [6-(4-Hydroxy-phenyl)-3-methyl-1H-pyrazolo[3,4-b]pyridin-4-yl]-((R)-2-methyl-piperazin-1-yl)-methanone]",95
21,"Cc1n[nH]c2nc(-c3ccc(O)cc3)cc(C(=O)N3C[C@@H](C)N[C@@H](C)C3)c12 [Example 24, ((3R,5S)-3,5-Dimethyl-piperazin-1-yl)-[6-(4-hydroxy-phenyl)-3-methyl-1H-pyrazolo[3,4-b]pyridin-4-yl]-methanone]",95
22,"Cc1n[nH]c2nc(-c3ccc(O)cc3)cc(C(=O)N3CCNC(c4ccccc4)C3)c12 (centres unmarked) [Example 25, [6-(4-Hydroxy-phenyl)-3-methyl-1H-pyrazolo[3,4-b]pyridin-4-yl]-(3-phenyl-piperazin-1-yl)-methanone]",89
23,"Cc1n[nH]c2nc(-c3ccc(O)cc3)cc(C(=O)N3CCNCC3c3ccccc3)c12 (centres unmarked) [Example 26, [6-(4-Hydroxy-phenyl)-3-methyl-1H-pyrazolo[3,4-b]pyridin-4-yl]-(2-phenyl-piperazin-1-yl)-methanone]",97
24,"Cc1n[nH]c2nc(-c3ccc(O)cc3)cc(C(=O)N3CCNC[C@@H]3c3ccccc3)c12 [Example 27, [6-(4-Hydroxy-phenyl)-3-methyl-1H-pyrazolo[3,4-b]pyridin-4-yl]-((S)-2-phenyl-piperazin-1-yl)-methanone]",95
25,"Cc1n[nH]c2nc(-c3ccc(O)cc3)cc(C(=O)N3CCNC[C@H]3c3ccccc3)c12 [Example 28, [6-(4-Hydroxy-phenyl)-3-methyl-1H-pyrazolo[3,4-b]pyridin-4-yl]-((R)-2-phenyl-piperazin-1-yl)-methanone]",99
26,"Cc1n[nH]c2nc(-c3ccc(O)cc3)cc(C(=O)N3CCNCC3c3ccc(Cl)c(Cl)c3)c12 (centres unmarked) [Example 29, [2-(3,4-Dichloro-phenyl)-piperazin-1-yl]-[6-(4-hydroxy-phenyl)-3-methyl-1H-pyrazolo[3,4-b]pyridin-4-yl]-methanone]",99
